Measurements: patent publication US5840758A, “Oxime derivatives of fenamates as inhibitors of prostaglandin biosynthesis” (Abbott Laboratories, priority 1996, dated 1998)

Experiments:
[1] = molecular target: T1, human recombinant PGHS-1 (Homo sapiens, UniProt P23219); experiment: Inhibition of prostaglandin biosynthesis (PGE2 by EIA), recombinant human PGHS-1 enzyme assay; format: biochemical; details: 60 min preincubation, 10 μM arachidonic acid
T1 construct: made in house; host or cells: baculovirus/Sf9 insect cells (microsomes)
Description: (§1) Inhibition of prostaglandin biosynthesis was evaluated in recombinant human PGHS-1 and PGHS-2 enzyme assays. Representative compounds dissolved in DMSO (3.3% v/v) were preincubated with microsomes from recombinant human PGHS-1 or PGHS-2 expressed in the baculovirus/Sf9 cell system (Gierse, J. K., Hauser, S. D., Creely, D. P., Koboldt, C., Rangwala, S., H., Isakson, P. C., and Seibert, K. Expression and selective inhibition of the constituitive and inducible forms of cyclooxygenase Biochem J. 1995, 305: 479.), together with the cofactors phenol (2 mM) and hematin (1 μM) for 60 minutes prior to the addition of 10 μM arachidonic acid. The reaction was allowed to run for 2.5 minutes at room temperature prior to quenching with HCl and neutralization with NaOH. PGE2 production in the presence and absence of the drug was determined by EIA analysis. The EIA was conducted in 96 well microtiter plates (Nunc Roskilde, Denmark) and optical density measured using a microplate reader (Vmax, Molecular Devices Corp., Menlo Park, Calif.). EIA reagents for prostaglandin determination were purchased from Perseptive Diagnostics, Cambridge, Mass. PGE2 levels were measured against standards prepared in the same milieu. The immunoassays were conducted as recommended by the manufacturer.

[2] = molecular target: T2, human recombinant PGHS-2 (Homo sapiens, UniProt P35354); experiment: Inhibition of prostaglandin biosynthesis (PGE2 by EIA), recombinant human PGHS-2 enzyme assay; format: biochemical; details: 60 min preincubation, 10 μM arachidonic acid
T2 construct: made in house; host or cells: baculovirus/Sf9 insect cells (microsomes)
T2 sequence (P35354 18-604): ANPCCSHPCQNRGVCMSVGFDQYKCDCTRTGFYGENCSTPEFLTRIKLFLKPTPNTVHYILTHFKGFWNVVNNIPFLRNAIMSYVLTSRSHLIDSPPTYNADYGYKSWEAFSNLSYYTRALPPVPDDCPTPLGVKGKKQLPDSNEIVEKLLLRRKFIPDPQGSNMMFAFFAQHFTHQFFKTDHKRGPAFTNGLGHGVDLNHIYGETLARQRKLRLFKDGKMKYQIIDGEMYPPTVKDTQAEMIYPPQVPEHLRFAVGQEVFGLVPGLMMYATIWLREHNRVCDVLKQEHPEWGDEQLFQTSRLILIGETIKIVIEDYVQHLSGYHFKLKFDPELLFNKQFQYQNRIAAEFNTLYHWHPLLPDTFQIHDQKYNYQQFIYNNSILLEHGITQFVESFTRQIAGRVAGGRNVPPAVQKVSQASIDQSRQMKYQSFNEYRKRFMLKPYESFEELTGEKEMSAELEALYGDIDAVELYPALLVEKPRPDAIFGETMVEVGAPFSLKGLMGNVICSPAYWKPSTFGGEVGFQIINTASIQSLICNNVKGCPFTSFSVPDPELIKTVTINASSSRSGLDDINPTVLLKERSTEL
Description: as §1

[3] = test system: PGHS-2; details: in words, from literature; cited from earlier work
[4] = test system: PGHS-1; details: in words, from literature; cited from earlier work

T1 sequence (P23219 24-599): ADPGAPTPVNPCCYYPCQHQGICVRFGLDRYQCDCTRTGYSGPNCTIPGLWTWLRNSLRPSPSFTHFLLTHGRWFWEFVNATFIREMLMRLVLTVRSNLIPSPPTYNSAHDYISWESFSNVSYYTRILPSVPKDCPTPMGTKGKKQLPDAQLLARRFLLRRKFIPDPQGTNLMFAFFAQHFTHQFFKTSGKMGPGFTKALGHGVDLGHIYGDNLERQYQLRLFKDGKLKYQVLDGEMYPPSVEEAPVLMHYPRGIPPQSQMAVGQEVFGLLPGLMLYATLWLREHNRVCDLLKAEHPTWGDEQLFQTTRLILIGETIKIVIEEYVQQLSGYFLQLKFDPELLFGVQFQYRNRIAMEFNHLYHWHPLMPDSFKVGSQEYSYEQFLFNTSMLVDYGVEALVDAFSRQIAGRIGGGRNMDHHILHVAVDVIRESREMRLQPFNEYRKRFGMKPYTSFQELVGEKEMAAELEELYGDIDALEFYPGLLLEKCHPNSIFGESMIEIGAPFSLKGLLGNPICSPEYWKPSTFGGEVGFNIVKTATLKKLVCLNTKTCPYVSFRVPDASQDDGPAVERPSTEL

| IC50 [1] [µM] | IC50 [2] [µM] | SMILES | inhibition of PGHS-2 [3] | inhibition of PGHS-1 [4] |
| --- | --- | --- | --- | --- |
| 0.85 | 0.022 | Cc1ccc(Cl)c(Nc2ccccc2C=NOCC(=O)O)c1Cl [Example 1, 2-[(2,6-dichloro-3-methylphenyl)amino]benzaldehyde-O-carboxymethyl oxime] |  |  |
|  |  | Cc1ccc(Cl)c(Nc2ccccc2C(=O)O)c1Cl [Meclofenamic acid] | inhibit both PGHS-1 and PGHS-2 | inhibit both PGHS-1 and PGHS-2 |
|  |  | CC(C)Cc1ccc(C(C)C(=O)O)cc1 (centres unmarked) [ibuprofen] | inhibit both isozymes | inhibit both isozymes |
|  |  | COc1ccc2cc([C@H](C)C(=O)O)ccc2c1 [naproxen] | inhibit both isozymes | inhibit both isozymes |
